Test [1] deals with DNMT3A/3L (Homo sapiens, UniProt Q9Y6K1). In words: In vitro DNMT inhibition, radiometric filter-paper assay, DNMT3A/3L. The test is classed as biochemical.
The subject of test [2] is HepG2 cells. In words: MTT cell proliferation assay, HepG2. The test is classed as cell-based. As to conditions: Homo sapiens, HepG2, 24 h, read-out: IC50 (μM) HepG2. Background: Tetrazolium dyes change colour on reduction, which living cells bring about.
The target of test [3] is DNMT1 (Homo sapiens, UniProt P26358). In words: In vitro DNMT inhibition, radiometric filter-paper assay, DNMT1. The test is classed as biochemical.
Test [4] has as its system HT-29 cells. Description: MTT cell proliferation assay, HT-29. The test is classed as cell-based. The following applies: Homo sapiens, HT-29, 24 h, read-out: IC50 (μM) HT-29.
Test [5] addresses DNMT3B/3L (Homo sapiens, UniProt Q9UBC3). In words: In vitro DNMT inhibition, radiometric filter-paper assay, DNMT3B/3L. The test is classed as biochemical.
The test system of test [6] is DNMT1. As to conditions: rats, 21-week treatment period; protein expression ref 39; cited from earlier work.
Test [7] relates to DNMT3B. The following applies: rats, 21-week treatment period; protein expression ref 39; cited from earlier work.

Results on two compounds are retold here after paper PMC4828318 (Journal of enzyme inhibition and medicinal chemistry, 2015).

Broadly, the IC50 is the midpoint of a concentration-inhibition curve.

The structures appear in SMILES notation. Like-named read-outs stand apart in the source and are kept apart here.

Sequence of DNMT1 (Homo sapiens, UniProt P26358) (P26358 whole entry): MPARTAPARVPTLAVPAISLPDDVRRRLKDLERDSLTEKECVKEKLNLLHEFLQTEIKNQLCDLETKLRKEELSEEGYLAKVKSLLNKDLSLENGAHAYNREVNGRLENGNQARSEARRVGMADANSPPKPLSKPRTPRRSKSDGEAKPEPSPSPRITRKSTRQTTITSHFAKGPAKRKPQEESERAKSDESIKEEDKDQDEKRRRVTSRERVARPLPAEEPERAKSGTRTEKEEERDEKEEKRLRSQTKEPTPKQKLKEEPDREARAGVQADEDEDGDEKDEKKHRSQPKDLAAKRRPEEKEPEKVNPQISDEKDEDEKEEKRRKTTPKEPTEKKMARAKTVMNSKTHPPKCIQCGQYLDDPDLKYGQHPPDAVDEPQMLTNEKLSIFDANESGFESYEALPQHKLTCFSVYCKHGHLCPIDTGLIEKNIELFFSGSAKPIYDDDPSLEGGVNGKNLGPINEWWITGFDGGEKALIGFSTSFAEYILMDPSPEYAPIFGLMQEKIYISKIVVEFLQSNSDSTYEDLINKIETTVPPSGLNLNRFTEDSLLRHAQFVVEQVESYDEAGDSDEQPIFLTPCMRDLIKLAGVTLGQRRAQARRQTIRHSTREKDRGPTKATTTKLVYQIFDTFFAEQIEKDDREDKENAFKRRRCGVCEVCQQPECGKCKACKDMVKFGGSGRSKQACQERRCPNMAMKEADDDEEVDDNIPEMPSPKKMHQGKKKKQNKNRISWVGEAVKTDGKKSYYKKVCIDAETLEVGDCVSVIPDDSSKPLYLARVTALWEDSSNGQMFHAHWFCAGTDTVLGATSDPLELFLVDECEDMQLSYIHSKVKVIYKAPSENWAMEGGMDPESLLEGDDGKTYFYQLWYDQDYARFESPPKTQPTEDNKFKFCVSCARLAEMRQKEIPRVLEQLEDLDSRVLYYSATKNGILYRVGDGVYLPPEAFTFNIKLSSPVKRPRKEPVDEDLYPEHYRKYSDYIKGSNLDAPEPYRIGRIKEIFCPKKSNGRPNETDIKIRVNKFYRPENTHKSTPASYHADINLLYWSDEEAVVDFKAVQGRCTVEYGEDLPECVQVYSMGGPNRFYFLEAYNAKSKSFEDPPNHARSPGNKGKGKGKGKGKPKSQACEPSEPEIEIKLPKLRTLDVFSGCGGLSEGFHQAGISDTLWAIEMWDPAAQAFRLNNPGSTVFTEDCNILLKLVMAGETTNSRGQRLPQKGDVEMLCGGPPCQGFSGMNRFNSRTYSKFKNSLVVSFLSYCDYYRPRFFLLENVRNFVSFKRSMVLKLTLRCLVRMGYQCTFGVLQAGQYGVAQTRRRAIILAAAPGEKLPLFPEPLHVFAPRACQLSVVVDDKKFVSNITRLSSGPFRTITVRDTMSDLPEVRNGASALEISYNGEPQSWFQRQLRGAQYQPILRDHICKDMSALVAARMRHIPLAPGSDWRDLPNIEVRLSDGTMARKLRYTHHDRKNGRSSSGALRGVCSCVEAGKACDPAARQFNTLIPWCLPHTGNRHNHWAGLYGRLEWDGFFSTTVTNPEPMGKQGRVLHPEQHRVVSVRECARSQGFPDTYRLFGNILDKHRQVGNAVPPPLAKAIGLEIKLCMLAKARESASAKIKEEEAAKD

Regarding `COc1ccc(/C=C/c2cc(OC)cc(OC)c2)cc1` [TMS, 3,4′,5-trans-trimethoxystilbene], the half-maximal inhibitory concentration (IC50) in test [1] was above 300 µM; in test [2] it was above 100 µM; in test [3] (read-out: IC50 (μM) DNMT1, cell-free biochemical assay, NI = no inhibition at the maximum test compound concentration (300 μM)) it was above 300 µM; in test [4], 14 µM; in test [5] it was above 300 µM. Besides, the “inhibition of DNMT3A at the highest test compound concentration” value in test [1] (300 μM) is listed as “no significant inhibition”. Moreover, the “inhibition of DNMT1 at the highest test compound concentration” value in test [3] (300 μM) is “no significant inhibition”. Moreover, the “inhibition of DNMT3B at the highest test compound concentration” value in test [5] (300 μM) is given as “no significant inhibition”.

Regarding `Oc1ccc(/C=C/c2cc(O)cc(O)c2)cc1` [Resveratrol, 3,4′,5-trans-trihydroxystilbene], the “expression of the DNMT1 enzyme” value in test [6] is on record as “did not significantly reduce”. For the same compound, the half-inhibitory concentration (IC50) in test [1] is 105 µM; in test [2] it was 54.9 µM; in test [3] it was above 300 µM; in test [4], 130 µM; in test [5] it was 65 µM. The “expression of DNMT3B” value in test [7] is “significant reduction”.
